# Assay results published in PubChem BioAssay (NCI).
#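 Test compounds were applied to cells in 96-well plates for 48 hours at 5 doses. At the GI50, growth is halved. TGI denotes the concentration required for complete inhibition of growth.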
# What was measured:
# Test in all cases: growth of human tumour cells (NCI), 48 h
# [1] = tested on: MDA-MB-435
# [2] = tested on: NCI-H522 lung
# [3] = tested on: SR leukemia
# [4] = tested on: 786-0 renal
# [5] = tested on: NCI-H226 lung
# [6] = tested on: ACHN renal
# [7] = tested on: A498 renal
# [8] = tested on: CAKI-1 renal
# [9] = tested on: TK-10 renal
# [10] = tested on: SF-539 CNS
# [11] = tested on: RPMI-8226 leukemia
# [12] = tested on: RXF 393 renal
# [13] = tested on: HCT-15 colon
# [14] = tested on: K-562 leukemia
# [15] = tested on: HOP-62 NSCLC
# [16] = tested on: U251 CNS
# [17] = tested on: UACC-62 melanoma
# [18] = tested on: OVCAR-8 ovarian
# [19] = tested on: MCF7 breast
# [20] = tested on: LOX IMVI melanoma
# [21] = tested on: NCI-H460 lung
# [22] = tested on: SK-OV-3 ovarian
# [23] = tested on: SNB-75 CNS
# [24] = tested on: HCC-2998 colon
# [25] = tested on: SK-MEL-28 melanoma
# [26] = tested on: IGROV1 ovarian
# [27] = tested on: UO-31 renal
# [28] = tested on: UACC-257 melanoma
# [29] = tested on: HS 578T breast
compound,measurement,setting,value
NC(=O)n1c(=O)n(-c2cccc(C(F)(F)F)c2)c(=O)c2cc(-c3ccc(F)cc3F)ccc21,GI50,[1],1.89 µM
same,TGI,[1],7.33 µM
same,GI50,[2],0.493 µM
same,TGI,[2],3.74 µM
same,GI50,[3],0.58 µM
same,TGI,[3],4.6 µM
same,GI50,[4],1.94 µM
same,TGI,[4],4.54 µM
same,GI50,[5],1.31 µM
same,TGI,[5],3.99 µM
same,GI50,[6],2.42 µM
same,TGI,[6],10.1 µM
same,GI50,[7],0.512 µM
same,TGI,[7],1.93 µM
same,GI50,[8],1.9 µM
same,TGI,[8],6.38 µM
same,GI50,[9],4.04 µM
same,TGI,[9],9.74 µM
same,GI50,[10],2.11 µM
same,TGI,[10],8.5 µM
same,GI50,[11],0.99 µM
same,TGI,[11],5.12 µM
same,GI50,[12],1.23 µM
same,TGI,[12],3.13 µM
same,GI50,[13],0.79 µM
same,TGI,[13],2.68 µM
same,GI50,[14],0.771 µM
same,TGI,[14],80.3 µM
same,GI50,[15],1.96 µM
same,TGI,[15],4.79 µM
same,GI50,[16],2.01 µM
same,TGI,[16],11.1 µM
same,GI50,[17],0.363 µM
same,TGI,[17],1.69 µM
same,GI50,[18],1.84 µM
same,TGI,[18],9.65 µM
same,GI50,[19],1.74 µM
same,TGI,[19],6.47 µM
same,GI50,[20],1.68 µM
same,TGI,[20],3.76 µM
same,GI50,[21],1.39 µM
same,TGI,[21],6.8 µM
same,GI50,[22],1.6 µM
same,TGI,[22],4.42 µM
same,GI50,[23],1.81 µM
same,TGI,[23],7.47 µM
same,GI50,[24],2.76 µM
same,TGI,[24],9.26 µM
same,GI50,[25],1.39 µM
same,TGI,[25],8.55 µM
same,GI50,[26],2.12 µM
same,TGI,[26],15.1 µM
same,GI50,[27],2.19 µM
same,TGI,[27],8.44 µM
same,GI50,[28],1.06 µM
same,TGI,[28],4.54 µM
same,GI50,[29],2.12 µM
